# US11135145B2 (priority 2015, dated 2021)
# Several values for one entry are separate records, joined by “and”; a condition that tells them apart may be missing. Identical values can stand only once. Like-named read-outs stand apart in the source and are kept apart here.
# Columns and labels:
# [1] = tested on: glyoxalase 1 antioxidant response element (GLO1-ARE); assay: Stable transfectant GLO1-ARE luciferase reporter HepG2 cell line; format: cell-based, human; conditions: for GLO1-ARE transcription, normalised to positive control (blank = 0%, 10 μM trans-resveratrol = 100%): 5 μM single compound; for GLO1-ARE transcription, normalised to positive control (blank = 0%, 10 μM trans-resveratrol = 100%) / GLO1-ARE transcription, normalised to positive control: 6 hours, n = 3, ± SD; for Emax / EC50: Homo sapiens; for Emax: 10 μM tRES = 100%
# Description: A pGL4.22[luc2CP/puro] reporter vector containing GLO1-ARE was transfected into the HepG2 cell line according to the method set forth in Xue et al. (Biochem. J., 443, 213-222 (2012)). Transfected HepG2 cells were selected with puromycin (1 μg/ml). After culture for 3 weeks, puromycin-resistant cells were screened for luciferase activity after treatment with 4 μM sulforaphane for 6 hours. After validation of positive clones by measuring luciferase activity, the GLO1-ARE stable cell line, R1F3, was expanded in selection media.
# (§1) Stable transfectant cell line R1F3 was incubated with and without test compounds for 6 hours in MEM with 10% fetal calf serum and 2 mM glutamine under an atmosphere of 5% CO2 in air, 100% humidity and 37° C. For the reporter assay, 100 μl Cell Culture Lysis Reagent (CCLR, Promega) was added to cell and shaken gently for 30 minutes. The mixture of cell lysate was centrifuged (12,000 g, 5 minutes, 4° C.) and an aliquot (20 μl) of supernatant used in the reporter assay. The luciferase activity was determined using a Luciferase Assay System (Promega). The luciferase response is given in Relative Light Units (RLU).
# (§2) These were produced by transfection of a pGL4.22[luc2CP/puro] reporter vector containing NQO1-ARE or GLO1-ARE into the HepG2 cell line. Transfected HepG2 cells were selected with puromycin (1 μg/ml). After culture for 3 weeks, puromycin-resistant cells were screened for luciferase activity after treatment with 4 μM SFN for 6 h. After validation of positive clones by measuring luciferase activity, the stable cell line was expanded in selection media and thereafter used in studies for screening of bioactive compounds and synergism. Stable transfectant cell lines were incubated with and without bioactive compounds and combination of tRES and HESP (0.625-5.0 μM) for 6 h in MEM medium with 10% fetal calf serum and 2 mM glutamine under an atmosphere of 5% CO2 in air, 100% humidity and 37° C. This incubation period was optimum to judge initial rate of increase in transcriptional response in cells treated with compounds without increase in untreated controls. For the reporter assay, 100 μl Cell Culture Lysis Reagent (CCLR, Promega, Southampton, UK) was added to cell and shaken gently for 30 min. The mixture of cell lysate was centrifuged (12,000 g, 5 min, 4° C.) and an aliquot (20 μl) of supernatant used in the reporter assay. The luciferase activity was determined using a Luciferase Assay System (Promega). The luciferase response is given in Relative Light Units (RLU). Data are corrected for blank response and normalised to the highest effect (100%) achieved with 10 μM tRES. Data of normalised responses (blank=0%, 10 μM tRES=100%) for varied bioactive concentrations are fitted by non-linear regression to a dose-response curve, E=Emax×[Bioactive]^n/(EC50^n+[Bioactive]^n), solving for EC50 and n (logistic regression coefficient—also called the Hill coefficient). Nrf2-dependent transcriptional response was verified by siRNA silencing of Nrf2, as described in Xue et al., Biochem J 443, 213-222 (2012).
# [2] = tested on: NQO-1 antioxidant response element (NQO-1 - ARE); assay: NQO-1-ARE luciferase reporter HepG2 cell line; format: cell-based, human; conditions: for NQO-1 - ARE transcription, normalised to positive control (blank = 0%, 10 μM trans-resveratrol = 100%): 5 μM single compound; for NQO-1 - ARE transcription, normalised to positive control (blank = 0%, 10 μM trans-resveratrol = 100%) / NQO-1 - ARE transcription, normalised to positive control: HepG2, 6 hours, n = 3, ± SD; for NQO-1—ARE transcription in HepG2 cells (in words): 5 μM
# Description: A pGL4.22[luc2CP/puro] reporter vector containing NQO-1-ARE was transfected into the HepG2 cell line according to the method set forth in Xue et al (Biochem J 443: 213-222, (2012)). Transfected HepG2 cells were selected with puromycin (1 μg/ml). After culture for 3 weeks, puromycin-resistant cells were screened for luciferase activity after treatment with 4 μM sulforaphane for 6 hours. After validation of positive clones by measuring luciferase activity, the NQO-1-ARE stable cell line was expanded in selection media.
# as §1, with “line” for “line R1F3”
# as §2
# [3] = tested on: HO-1 gene expression; conditions: WO 2014/095289 Example 4; cited from earlier work
# [4] = tested on: human hair follicle; conditions: WO 2014/095289 Example 3; cited from earlier work
# [5] = tested on: NQO-1 gene expression; conditions: WO 2014/095289 Example 4; cited from earlier work
# [6] = patients with type 2 diabetes; 1.7 g metformin per day; cited from earlier work
# [7] = tested on: matrix metalloproteinase-3 protein (MMP); assay: Cellular MMP-3 protein marker; format: cell-based, human; conditions: BJ fibroblasts; 5 μM
# [8] = HATFF study: total urinary metabolites of tRES and HESP (LC-MS/MS); format: in vivo, human; conditions: urine
# [9] = dietary supplement of 150 mg HESP (Takumi et al.); cited from earlier work
# [10] = tested on: NQO-1 mRNA; assay: NQO-1 mRNA by digital mRNA profiling (NanoString nCounter); format: cell-based; conditions: human dermal foreskin BJ fibroblasts; 5 μM of each compound; 12 hours; n = 3; ± SD
# Description: (§3) Human dermal foreskin BJ fibroblasts at cumulative population doubling of 22 were purchased from the European Collection of Animal Cell Cultures (Porton Down, UK). They were cultured in Eagle's Minimum Essential Medium (MEM) with 10% fetal calf serum and 2 mM glutamine under an atmosphere of 5% CO2 in air, 100% humidity and 37° C.
# [11] = tested on: HO-1 mRNA; assay: HO-1 (HMOX1) mRNA by digital mRNA profiling (NanoString nCounter); format: cell-based; conditions: human dermal foreskin BJ fibroblasts; 5 μM of each compound; 12 hours; n = 3; ± SD
# Description: as §3
# [12] = tested on: oxidised glutathione (GSSG); assay: Cellular GSSG content; format: cell-based, human; conditions: HAECs, BJ fibroblasts and HepG2 cells; 5 μM single compound
# [13] = tested on: human BJ fibroblasts; assay: Cytotoxicity in human BJ fibroblasts in primary culture; format: cell-based; conditions: for toxicity (cytotoxicity): individually or with 5 μM combination with primary bioactive compound, concentrations ≤20 μM
# Description: Primary human aortal endothelial cells (HAEC) were purchased from Lonza (Slough, U.K). HAEC cells were grown in proprietary large vessel endothelial cell basal media supplemented with large vessel endothelial cell growth supplement (containing hydrocortisone, human epidermal growth factor, human fibroblast growth factor with heparin and in 2% (/v/) FBS), 25 μg/ml gentamicin and 50 ng/ml amphotericin B. Human dermal foreskin BJ fibroblasts at cumulative population doubling of 22 were purchased from the European Collection of Animal Cell Cultures (Porton Down, UK). They were cultured in MEM medium with 10% fetal calf serum and 2 mM glutamine under an atmosphere of 5% CO2 in air, 100% humidity and 37° C.
# [14] = reviewed in Vang et al. and Parhiz et al.; cited from earlier work
# [15] = tested on: ICAM1 mRNA; assay: ICAM1 mRNA, focused quantitative mRNA profiling; format: cell-based, human; conditions: HAECs
# [16] = tested on: GSH; assay: Cellular GSH content; format: cell-based, human; conditions: HAECs, BJ fibroblasts and HepG2 cells; 5 μM single compound
# [17] = compound alone, HepG2 reporter, 6 h, read-out: EC50 for GLO1-ARE transcriptional response
smiles,measurement,setting,value
"COc1cc(/C=C/c2ccc(O)cc2)cc(OC)c1 [Pterostilbene, pterostilbene]","GLO1-ARE transcription, normalised to positive control (blank = 0%, 10 μM trans-resveratrol = 100%)",[1]; HepG2,37.5 ± 18.3%
same,"NQO-1 - ARE transcription, normalised to positive control (blank = 0%, 10 μM trans-resveratrol = 100%)",[2],41.8 ± 2.7%
"Oc1cc(O)cc(/C=C/c2ccc(O)c(O)c2)c1 [Piceatannol, piceatannol]","GLO1-ARE transcription, normalised to positive control (blank = 0%, 10 μM trans-resveratrol = 100%)",[1]; HepG2,61.3 ± 31.0%
same,"NQO-1 - ARE transcription, normalised to positive control (blank = 0%, 10 μM trans-resveratrol = 100%)",[2],66.6 ± 2.4%
C[S+]([O-])CCCCN=C=S (stereo not drawn) [sulforaphane],HO-1 gene expression in human hair follicles,[3],significantly up-regulates
same,human hair follicle growth,[4],significantly up-regulates
same,NQO-1 gene expression in human hair follicles,[5],significantly up-regulates
CN(C)C(=N)N=C(N)N [metformin],ΔOGIS,[6],+54 mlmin^−1m^−2
"COc1ccc(C2CC(=O)c3c(O)cc(O)cc3O2)cc1O (stereo not drawn) [hesperetin, 2,3-Dihydro-5,7-dihydroxy-2-(3-hydroxy-4-methoxyphenyl)-4H-1-benzopyran-4-one]",cellular MMP-3 protein,[7],increase
same,"GLO1-ARE transcription, normalised to positive control (blank = 0%, 10 μM trans-resveratrol = 100%)",[1]; HepG2,13.0 ± 1.6%
same,"logistic regression coefficient n, GLO1-ARE response",[1]; HESP alone,2.01±0.02
same,Emax,"[1]; HepG2, compound alone",24.4 ± 0.1%
same,EC50,[1]; [17],590 ± 10 nM
same,eriodictyol (demethylated HESP) in study samples,[8],"no eriodctyol (demethylated HESP), was detected"
same,peak plasma concentration of HESP,[9],6.7 µM
same,NQO-1 mRNA (relative mRNA copy numbers as a % of vehicle control),[10],93.0 ± 3.5 % of vehicle control
same,HO-1 mRNA (relative mRNA copy numbers as a % of vehicle control),[11],95.4 ± 3.7 % of vehicle control
same,cellular level of GSSG,[12],did not change
same,"NQO-1 - ARE transcription, normalised to positive control (blank = 0%, 10 μM trans-resveratrol = 100%)",[2],7.9 ± 0.7%
same,toxicity (cytotoxicity),[13]; BJ fibroblasts,no toxicity
same,viability of BJ cells in vitro,[13]; HESP (40 μM) with and without 5 μM tRES,minor decrease
same,safety assessments (tolerability),[14],highly tolerated
same,ICAM1 mRNA,"[15]; 5 μM HESP individually, 6 h post-treatment",tended to increased
same,cellular level of GSH,[16],did not change
"O=C1CC(c2ccc(O)c(O)c2)Oc2cc(O)cc(O)c21 (stereo not drawn) [Eriodictyol, 2-(3,4-Dihydroxyphenyl)-5,7-dihydroxy-4-chromanone]",NQO-1—ARE transcription in HepG2 cells (in words),[2],up-regulate
same,"NQO-1 - ARE transcription, normalised to positive control (blank = 0%, 10 μM trans-resveratrol = 100%)",[2],95.3 ± 14.7%
Oc1ccc(/C=C/c2cc(O)cc(O)c2)cc1 [trans-resveratrol],cellular MMP-3 protein,[7],decreases
same,"GLO1-ARE transcription, normalised to positive control","[1]; 0.625 μM trans-resveratrol, 0 μM hesperetin, HepG2",4.0 ± 2.2%
same,"GLO1-ARE transcription, normalised to positive control","[1]; 1.25 μM trans-resveratrol, 0 μM hesperetin, HepG2",19.2 ± 7.6%
same,"GLO1-ARE transcription, normalised to positive control","[1]; 2.5 μM trans-resveratrol, 0 μM hesperetin, HepG2",53.8 ± 7.4%
same,"GLO1-ARE transcription, normalised to positive control (blank = 0%, 10 μM trans-resveratrol = 100%)",[1]; HepG2,67.6 ± 14.5%
same,"GLO1-ARE transcription, normalised to positive control","[1]; 10 μM trans-resveratrol, 0 μM hesperetin (positive control = 100%), HepG2",100.0 ± 2.9%
same,predicted increase of GLO1-ARE transcriptional response,[1]; 0.1-1.0 tRES in the presence of 5 μM HESP,3-79 fold
same,increased GLO1-ARE transcriptional response over additive effects,"[1]; 0.1-1.0 tRES in the presence of 5 μM HESP, predicted",up to 79%
same,"Emax of tRES, GLO1-ARE response",[1]; 0.625-10 μM tRES with 5 μM HESP,maintaining the Emax
same,EC50,"[1]; HepG2, 0.625-10 μM tRES with 5 μM HESP, read-out: EC50 of tRES for GLO1-ARE transcriptional response",1460 ± 100 nM
same,Emax,"[1]; HepG2, compound alone",100 ± 8.9%
same,EC50,[1]; [17],2520 ± 190 nM
same,cellular level of GSSG,[12],did not change
same,"NQO-1 - ARE transcription, normalised to positive control","[2]; 0.625 μM trans-resveratrol, 0 μM hesperetin",1.9 ± 8.6%
same,"NQO-1 - ARE transcription, normalised to positive control","[2]; 1.25 μM trans-resveratrol, 0 μM hesperetin",6.4 ± 2.5%
same,"NQO-1 - ARE transcription, normalised to positive control","[2]; 2.5 μM trans-resveratrol, 0 μM hesperetin",15.7 ± 6.7%
same,"NQO-1 - ARE transcription, normalised to positive control (blank = 0%, 10 μM trans-resveratrol = 100%)",[2],58.0 ± 2.5% and 56.9 ± 1.7%
same,"NQO-1 - ARE transcription, normalised to positive control","[2]; 10 μM trans-resveratrol, 0 μM hesperetin (positive control = 100%)",100.0 ± 10.0%
same,toxicity (cytotoxicity),[13]; BJ fibroblasts,no toxicity
same,cell number,"[13]; tRES (5 μM) with 0.625 μM HESP, BJ fibroblasts",minor increase
same,viability of BJ cells in vitro,[13]; tRES (40 μM) with 5 μM HESP,minor decrease
same,ICAM1 mRNA,"[15]; 5 μM tRES individually, 48 h post-treatment",tended to increased
same,cellular level of GSH,[16],did not change
"O=C1C[C@@H](c2ccc(O)cc2)Oc2cc(O)cc(O)c21 [Naringenin, naringenin, reference compound]",NQO-1—ARE transcription in HepG2 cells (in words),[2],does not up-regulate
same,"NQO-1 - ARE transcription, normalised to positive control (blank = 0%, 10 μM trans-resveratrol = 100%)",[2],−2.75 ± 5.24%
